Where “and” joins values, the source holds several entries; their conditions need not be identical. Identical values can stand only once.
Assay: UV absorption properties (λmax, molar extinction coefficient ε, efficiency E 1%, 1 cm)
Format: physicochemical
Details: for ε (molar extinction coefficient): values in order of the λmax values; for ε value: unit inferred

| UV λmax | ε (molar extinction coefficient) [M⁻¹ cm⁻¹] | ε value [M⁻¹ cm⁻¹] | Structure (SMILES) |
| --- | --- | --- | --- |
| 360 nm | 23198 | – | CC1(C)CCN(C(C)(C)C)C=C1C(=O)/C=C/c1ccccc1 [Compound 155, (E)-1-(1-(tert-butyl)-4,4-dimethyl-1,4,5,6-tetrahydropyridin-3-yl)-3-phenylprop-2-en-1-one] |
| 317 nm | 27506 | – | CC1(C)CCN(C(C)(C)C)C=C1C(=O)c1ccc(Br)cc1 [Compound 156, (4-bromophenyl)(1-(tert-butyl)-4,4-dimethyl-1,4,5,6-tetrahydropyridin-3-yl)methanone] |
| 307 nm | 54797 | > 54000 | CC1(C)CCN(C(C)(C)C)C=C1C(=O)CCCCCCCCC(=O)C1=CN(C(C)(C)C)CCC1(C)C [Compound 166, 1,10-bis(1-(tert-butyl)-4,4-dimethyl-1,4,5,6-tetrahydropyridin-3-yl)decane-1,10-dione] |
| 305 nm | 15425 | – | CC1(C)CCN(C(C)(C)C)C=C1C(=O)C1=CN(C(C)(C)C)CCC1(C)C [Compound 167, bis(1-(tert-butyl)-4,4-dimethyl-1,4,5,6-tetrahydropyridin-3-yl)methanone] |
| 313 nm | 26154 | – | CC1(C)CCN(C(C)(C)C)C=C1C(=O)COc1ccccc1 [Compound 168, 1-(1-(tert-butyl)-4,4-dimethyl-1,4,5,6-tetrahydropyridin-3-yl)-2-phenoxyethanone] |
| 316 nm | 23556 | – | CC1(C)CCN(C(C)(C)C)C=C1C(=O)c1ccncc1 [Compound 169, (1-(tert-butyl)-4,4-dimethyl-1,4,5,6-tetrahydropyridin-3-yl)(pyridin-4-yl)methanone] |
| 396 nm and 309 nm | – | – | CC1(C)CCN(C(C)(C)C)C=C1C(=O)CC(=O)c1ccccc1 [Compound 170, 1-(1-(tert-butyl)-4,4-dimethyl-1,4,5,6-tetrahydropyridin-3-yl)-3-phenylpropane-1,3-dione] |
| 329 nm | 31955 | – | CCC(=O)C1=CN(c2ccc(C(C)(C)C)cc2)CCC1(C)C [Compound 177, 1-(1-(4-(tert-butyl)phenyl)-4,4-dimethyl-1,4,5,6-tetrahydropyridin-3-yl)propan-1-one] |
| 308 nm | 34834 | 35000 | CC1(C)CCN(C(C)(C)C)C=C1C(=O)Nc1ccccc1 [Compound 179, 1-(tert-butyl)-4,4-dimethyl-N-phenyl-1,4,5,6-tetrahydropyridine-3-carboxamide] |
| 312 nm | 15174 | – | CN(C(=O)C1=CN(C(C)(C)C)CCC1(C)C)c1ccccc1 [Compound 180, 1-(tert-butyl)-N,4,4-trimethyl-N-phenyl-1,4,5,6-tetrahydropyridine-3-carboxamide] |
| 289 nm | 31072 | – | CC1(C)CCN(C(C)(C)C)C=C1C(=O)NCCCCCCNC(=O)C1=CN(C(C)(C)C)CCC1(C)C [Compound 181, N,N′-(hexane-1,6-diyl)bis(1-(tert-butyl)-4,4-dimethyl-1,4,5,6-tetrahydropyridine-3-carboxamide)] |
| 363 nm | 20881 | – | CC1(C)CCN(C(C)(C)C)C=C1C(=S)Nc1ccccc1 [Compound 182, 1-(tert-butyl)-4,4-dimethyl-N-phenyl-1,4,5,6-tetrahydropyridine-3-carbothioamide] |
| 308 nm | – | – | Cc1ccc(NC(=O)C2=CN(C(C)(C)C)CCC2(C)C)cc1NC(=O)C1=CN(C(C)(C)C)CCC1(C)C [Compound 184, N,N′-(4-methyl-1,3-phenylene)bis(1-(tert-butyl)-4,4-dimethyl-1,4,5,6-tetrahydropyridine-3-carboxamide)] |
| 310 nm | 64589 | – | CC1(C)CCN(C(C)(C)C)C=C1C(=O)Nc1ccc(Cc2ccc(NC(=O)C3=CN(C(C)(C)C)CCC3(C)C)cc2)cc1 [Compound 185, N,N′-(methylenebis(4,1-phenylene))bis(1-(tert-butyl)-4,4-dimethyl-1,4,5,6-tetrahydropyridine-3-carboxamide)] |
| 304 nm | 34588 | – | Cc1ccc(S(=O)(=O)NC(=O)C2=CN(C(C)(C)C)CCC2(C)C)cc1 [Compound 186, 1-(tert-butyl)-4,4-dimethyl-N-tosyl-1,4,5,6-tetrahydropyridine-3-carboxamide] |
| 322 nm | 71962 | – | CC1(C)CCN(C(C)(C)C)C=C1C(=O)Nc1ccc(NC(=O)C2=CN(C(C)(C)C)CCC2(C)C)cc1 [Compound 187, N,N′-(1,4-phenylene)bis(1-(tert-butyl)-4,4-dimethyl-1,4,5,6-tetrahydropyridine-3-carboxamide)] |

Further lines, the compound ahead of its results:

| Structure (SMILES) | UV λmax | ε (molar extinction coefficient) [M⁻¹ cm⁻¹] | ε value [M⁻¹ cm⁻¹] |
| --- | --- | --- | --- |
| C=CC(=O)C1=CN(c2ccc(OC)cc2)CCC1(C)C [Compound 53, 1-(1-(4-methoxyphenyl)-4,4-dimethyl-1,4,5,6-tetrahydropyridin-3-yl)prop-2-en-1-one] | 350 nm | 21500 | – |
| COc1ccc(N2C=C(C(=O)c3ccc(F)cc3)C(C)(C)CC2)cc1 [Compound 54, (4-fluorophenyl)(1-(4-methoxyphenyl)-4,4-dimethyl-1,4,5,6-tetrahydropyridin-3-yl)methanone] | 341 nm | 19350 | – |
| CCC(=O)C1=C(c2ccccc2)N(CC(C)C)CCC1(C)C [Compound 58, 1-(1-isobutyl-4,4-dimethyl-2-phenyl-1,4,5,6-tetrahydropyridin-3-yl)propan-1-one] | 338 nm | 8000 | – |
| CCC(=O)O/C(=C\C1=CC(C)(C)CCN1CC(C)C)CC [Compound 60, 1-(1-isobutyl-4,4-dimethyl-1,4,5,6-tetrahydropyridin-2-yl)but-1-en-2-yl propionate] | 323 nm | 20000 | – |
| CCC(=O)C1=CN(CC(C)C)C(=O)CC1(C)C [Compound 64, 1-isobutyl-4,4-dimethyl-5-propionyl-3,4-dihydropyridin-2(1H)-one] | 291 nm | – | – |
| CCC(=O)C1=CN(CC(C)C)C=CC1(C)C [Compound 65, 1-(1-isobutyl-4,4-dimethyl-1,4-dihydropyridin-3-yl)propan-1-one] | 366 nm | – | – |
| CC(C)CN1C=C(C(=O)CCC(=O)O)C(C)(C)CC1 [Compound 70, 4-(1-isobutyl-4,4-dimethyl-1,4,5,6-tetrahydropyridin-3-yl)-4-oxobutanoic acid] | 308 nm | – | – |
| CC(C)CN1C=C(C(=O)C(c2ccccc2)c2ccccc2)C(C)(C)CC1 [Compound 71, 1-(1-isobutyl-4,4-dimethyl-1,4,5,6-tetrahydropyridin-3-yl)-2,2-diphenylethanone] | 314 nm | 26000 | – |
| CC(C)CN1C=C(S(=O)(=O)c2ccccc2)C(C)(C)CC1 [Compound 72, 1-Isobutyl-4,4-dimethyl-5-(phenylsulfonyl)-1,2,3,4-tetrahydropyridine] | 285 nm | – | – |
| Cc1cc(N2C=CC(C)(C)C=C2)n(C)n1 [Compound 152, 1-(1,3-dimethyl-1H-pyrazol-5-yl)-4,4-dimethyl-1,4-dihydropyridine] | 253 nm | 11371 | – |
| C=CC(=O)C1=CN(C(C)(C)C)CCC1(C)C [Compound 154, 1-(1-(tert-butyl)-4,4-dimethyl-1,4,5,6-tetrahydropyridin-3-yl)prop-2-en-1-one] | 328 nm | 24907 | – |
| COc1ccc(N2C=C(C(=O)C3CCCC3=O)C(C)(C)CC2)cc1 (stereo not shown) [Compound 171, 2-(1-(4-methoxyphenyl)-4,4-dimethyl-1,4,5,6-tetrahydropyridine-3-carbonyl)cyclopentanone] | 332 nm | 30675 | – |
| Cc1ccc(N2C=C(C(=O)CCCCCCCCC(=O)C3=CN(c4ccc(C)cc4)CCC3(C)C)C(C)(C)CC2)cc1 [Compound 172, 1,10-bis(4,4-dimethyl-1-(p-tolyl)-1,4,5,6-tetrahydropyridin-3-yl)decane-1,10-dione] | 328 nm | 52737 | > 52000 |
| COc1ccc(N2C=C(C(=O)COc3ccccc3)C(C)(C)CC2)cc1 [Compound 173, 1-(1-(4-methoxyphenyl)-4,4-dimethyl-1,4,5,6-tetrahydropyridine-3-yl)-2-phenoxyethanone] | 339 nm | 26633 | – |
| COc1ccc(N2C=C(C(=O)Cc3ccccc3)C(C)(C)CC2)cc1 [Compound 174, 1-(1-(4-methoxyphenyl)-4,4-dimethyl-1,4,5,6-tetrahydropyridin-3-yl)-2-phenylethanone] | 334 nm | 33786 | – |
| CCCCCCCC(=O)C1=CN(c2ccc(N(C)C)cc2)CCC1(C)C [Compound 175, 1-(1-(4-(dimethylamino)phenyl)-4,4-dimethyl-1,4,5,6-tetrahydropyridin-3-yl)octan-1-one] | 338 nm | 28040 | – |
| CCC(=O)C1=CN(c2ccc(C)cc2)CCC1(C)C [Compound 176, 1-(4,4-dimethyl-1-(p-tolyl)-1,4,5,6-tetrahydropyridin-3-yl)propan-1-one] | 327 nm | 34608 | – |
| CCC(=O)C1=CN(c2cccc3ccccc23)CCC1(C)C [Compound 178, 1-(4,4-dimethyl-1-(naphthalen-1-yl)-1,4,5,6-tetrahydropyridin-3-yl)propan-1-one] | 321 nm | 23247 | – |
| CCCCNC(=O)C1=CN(C(C)(C)C)CCC1(C)C [Compound 183, 1-(tert-butyl)-N-butyl-4,4-dimethyl-1,4,5,6-tetrahydropyridine-3-carboxamide] | 288 nm | 22531 | – |

From US10519111B2, “UV absorbing compounds, compositions comprising same and uses thereof” (CORAL SUNSCREEN PTY LTD, priority 2013, dated 2019)
